Starred links: 1 amine or outer side, 2 acyl side, 3 side chain; linkers in the order of their positions; H or OH if unused. Non-standard residues stand in square brackets, D forms with d. Residues, ends and D or L forms follow the SMILES beside them. Phe(4-(4-Ac-piperazinyl)) = CC(=O)N1CCN(c2ccc(C[C@H](N)C(=O)O)cc2)CC1; Trp(βS-Me,4-F) = C[C@@H](c1c[nH]c2cccc(F)c12)[C@H](N)C(=O)O; Bip(4'-COOH) = N[C@@H](Cc1ccc(-c2ccc(C(=O)O)cc2)cc1)C(=O)O; X21 = O=C(O)c1ccc(-c2ccc(C[C@H](N[*:1])C(=O)[*:2])cn2)cc1; dPro(4R-Bzl(4-F)) = O=C(O)[C@H]1C[C@@H](Cc2ccc(F)cc2)CN1; X14 = O=C([C@H]1[C@@H](Cc2ccccc2)CCN1[*:1])[*:2]; X5 = O=C([C@H]1C[C@@H](Cc2ccccc2)CN1[*:1])[*:2]; Ala(pyrimidin-5-yl) = N[C@@H](Cc1cncnc1)C(=O)O; Phe(4-COOH) = N[C@@H](Cc1ccc(C(=O)O)cc1)C(=O)O; Pro(cis-4-F) = O=C(O)[C@@H]1C[C@H](F)CN1; 2Pal = N[C@@H](Cc1ccccn1)C(=O)O; 3Pal = N[C@@H](Cc1cccnc1)C(=O)O; 4Pal = N[C@@H](Cc1ccncc1)C(=O)O; Dab = NCC[C@H](N)C(=O)O; Aib = CC(C)(N)C(=O)O

In the test the target is T1, IL-1β (Homo sapiens, UniProt P01584).
T1 construct: purchased BioLegend 579404
T1 sequence (P01584 117-269): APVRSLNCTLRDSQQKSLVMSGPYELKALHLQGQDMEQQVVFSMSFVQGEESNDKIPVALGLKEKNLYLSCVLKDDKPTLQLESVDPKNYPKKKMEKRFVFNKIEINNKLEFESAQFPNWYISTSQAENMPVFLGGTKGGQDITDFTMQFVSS
The test can be described thus: IL-6 assay in MRC5 cells: inhibition of IL-1β induced IL-6 secretion (AlphaLISA). The class given is cell-based. The note with it: inhibition of IL-1β induced IL-6 secretion in MRC5 cells; read-out: MRC5 IC50. How it is done: Procedure for IL-6 Assay in MRC5 Cells
The inhibition of IL-1β induced IL-6 secretion was evaluated in MRC5 cells. Recombinant human IL-1β (BioLegend 579404) at 2λ EC80 concentration was prepared in seeding medium. EMEM (ATCC 30-2003) with 0.025% BSA (Sigma A9576), 1×penicillin/streptomycin (Gibco 15070-063), 1×NEAA (Gibco 11140-050), 1×GlutaMax (Gibco 35050-061), and 1×sodium pyruvate (Gibco 11360-070), 20 μL of IL-1β was added to a 384-well collagen-coated plate (Corning 354664) and pre-incubated at ambient temperature for 1 hour with 200 nL of compound dispensed using an ECHO 555 liquid handler. Human lung fibroblast MRC5 cells (ATCC CCL-171) were added at a density of 3000 cells/20 μL per well. The cells were prepared by passaging three times in growth medium, EMEM (ATCC 30-2003) with 10% fetal bovine serum (Gibco 16140-071), 1×penicillin/streptomycin (Gibco 15070-063), 1×NEAA (Gibco 11140-050), 1×GlutaMax (Gibco 35050-061), and 1×sodium pyruvate (Gibco 11360-070) in collagen-coated T175 flasks (Greiner 661950) and harvested in seeding medium after 5 minutes of 0.25% trypsin-EDTA (Gibco 25200-056) digestion. The 384-well collagen-coated plate, containing a final volume of 40 μL, was incubated at 37° C., 5% CO2 overnight. 5 μL of the conditioned medium was transferred to a 384-well AlphaLISA plate (PerkinElmer 6005350) for detection of IL-6 using the human AlphaLISA IL-6 kit (PerkinElmer AL223F) as per the manufacturer's protocol. 20 μL of the acceptor bead/biotinylated antibody mix was added to the 384-well AlphaLISA plate and incubated for 1 hour at ambient temperature. The donor bead mix was protected from light and 25 μL was added to the plate and incubated for 30 minutes at ambient temperature. The AlphaLISA plate was read on an EnVision multimode plate reader (Perkin Elmer model 2104) using the AlphaScreen setting (laser exc at 680 nm and emis at […]). Dose response curves and IC50 values were analyzed using a 4-parameter logistic equation in Spotfire software (Tibco, Palo Alto, CA).
On the technique in general: Bead proximity is the source of the signal in Alpha formats.
As for `C[C@@H](c1c[nH]c2cccc(F)c12)[C@@H]1NC(=O)[C@@H]2C[C@H](F)CN2C(=O)CNC(=O)[C@H](Cc2ccc(C(=O)O)cc2)NC(=O)[C@H](Cc2ccncc2)NC(=O)[C@H](Cc2ccc(-c3ccc(C(=O)O)cc3)nc2)NC(=O)[C@H]2C[C@@H](Cc3ccc(F)cc3)CN2C(=O)CNC(=O)[C@H](CCN)NC(=O)[C@H](CCC(N)=O)NC(=O)[C@H](Cc2cncnc2)NC(=O)C(C)(C)NC(=O)[C@H](Cc2c[nH]c3ccccc23)NC(=O)[C@H](CCC(=O)O)NC(=O)C(C)(C)NC1=O` [Example 26] (cyclo([X21][4Pal][Phe(4-COOH)]G[Pro(cis-4-F)][Trp(βS-Me,4-F)][Aib]EW[Aib][Ala(pyrimidin-5-yl)]Q[Dab]G[dPro(4R-Bzl(4-F))])), the concentration for half-maximal inhibition (IC50) (commonly the concentration needed to halve the response being measured) was determined as 0.035 nM.

Turning to `C[C@@H](c1c[nH]c2cccc(F)c12)[C@@H]1NC(=O)[C@@H]2C[C@H](F)CN2C(=O)CNC(=O)[C@H](Cc2ccc(C(=O)O)cc2)NC(=O)[C@H](Cc2ccncc2)NC(=O)[C@H](Cc2ccc(-c3ccc(C(=O)O)cc3)cc2)NC(=O)[C@H]2[C@@H](Cc3ccccc3)CCN2C(=O)CNC(=O)[C@H](CO)NC(=O)[C@H](CCC(N)=O)NC(=O)[C@H](Cc2cncnc2)NC(=O)C(C)(C)NC(=O)[C@H](Cc2c[nH]c3ccccc23)NC(=O)[C@H](CCC(=O)O)NC(=O)C(C)(C)NC1=O` [Example 28] (cyclo([Bip(4'-COOH)][4Pal][Phe(4-COOH)]G[Pro(cis-4-F)][Trp(βS-Me,4-F)][Aib]EW[Aib][Ala(pyrimidin-5-yl)]QSG[X14])), the IC50 is 0.023 nM. For `C[C@@H](c1c[nH]c2cccc(F)c12)[C@@H]1NC(=O)[C@@H]2C[C@H](F)CN2C(=O)CNC(=O)[C@H](Cc2ccc(C(=O)O)cc2)NC(=O)[C@H](Cc2ccncc2)NC(=O)[C@H](Cc2ccc(-c3ccc(C(=O)O)cc3)cc2)NC(=O)[C@H]2C[C@@H](Cc3ccccc3)CN2C(=O)CNC(=O)[C@H](CCN)NC(=O)[C@H](CCC(N)=O)NC(=O)[C@H](Cc2cncnc2)NC(=O)C(C)(C)NC(=O)[C@H](Cc2c[nH]c3ccccc23)NC(=O)[C@H](CCC(=O)O)NC(=O)C(C)(C)NC1=O` [Example 29] (cyclo([Bip(4'-COOH)][4Pal][Phe(4-COOH)]G[Pro(cis-4-F)][Trp(βS-Me,4-F)][Aib]EW[Aib][Ala(pyrimidin-5-yl)]Q[Dab]G[X5])), the IC50 was found to be 0.019 nM. For `C[C@@H](c1c[nH]c2cccc(F)c12)[C@@H]1NC(=O)[C@@H]2C[C@H](F)CN2C(=O)CNC(=O)[C@H](Cc2ccc(C(=O)O)cc2)NC(=O)[C@H](Cc2ccncc2)NC(=O)[C@H](Cc2ccc(-c3ccc(C(=O)O)cc3)cc2)NC(=O)[C@H]2C[C@@H](Cc3ccccc3)CN2C(=O)CNC(=O)[C@H](CO)NC(=O)[C@H](CCC(N)=O)NC(=O)[C@H](Cc2cncnc2)NC(=O)C(C)(C)NC(=O)[C@H](Cc2c[nH]c3ccccc23)NC(=O)[C@H](CCC(=O)O)NC(=O)C(C)(C)NC1=O` [Example 30] (cyclo([Bip(4'-COOH)][4Pal][Phe(4-COOH)]G[Pro(cis-4-F)][Trp(βS-Me,4-F)][Aib]EW[Aib][Ala(pyrimidin-5-yl)]QSG[X5])) the value was 0.026 nM. For the compound `C[C@@H](c1c[nH]c2cccc(F)c12)[C@@H]1NC(=O)[C@@H]2C[C@H](F)CN2C(=O)CNC(=O)[C@H](Cc2ccc(C(=O)O)cc2)NC(=O)[C@H](Cc2ccncc2)NC(=O)[C@H](Cc2ccc(-c3ccc(C(=O)O)cc3)cc2)NC(=O)[C@H]2C[C@@H](Cc3ccccc3)CN2C(=O)CNC(=O)[C@H](CCN)NC(=O)[C@H](CCC(N)=O)NC(=O)[C@H](Cc2cncnc2)NC(=O)C(C)(C)NC(=O)[C@H](Cc2c[nH]c3ccccc23)NC(=O)[C@H](CCC(=O)O)NC(=O)C(C)(C)NC1=O` [Example 31] (cyclo([Bip(4'-COOH)][4Pal][Phe(4-COOH)]G[Pro(cis-4-F)][Trp(βS-Me,4-F)][Aib]EW[Aib][Ala(pyrimidin-5-yl)]Q[Dab]G[X5])), the IC50 was 0.024 nM.

For the compound `C[C@@H](c1c[nH]c2cccc(F)c12)[C@@H]1NC(=O)[C@@H]2C[C@H](F)CN2C(=O)CNC(=O)[C@H](Cc2ccc(C(=O)O)cc2)NC(=O)[C@H](Cc2ccncc2)NC(=O)[C@H](Cc2ccc(-c3ccc(C(=O)O)cc3)cc2)NC(=O)[C@H]2C[C@@H](Cc3ccc(F)cc3)CN2C(=O)CNC(=O)[C@H](CO)NC(=O)[C@H](CCC(N)=O)NC(=O)[C@H](CCCNC(=N)N)NC(=O)C(C)(C)NC(=O)[C@H](Cc2c[nH]c3ccccc23)NC(=O)[C@H](CCC(=O)O)NC(=O)C(C)(C)NC1=O` [Example 32] (cyclo([Bip(4'-COOH)][4Pal][Phe(4-COOH)]G[Pro(cis-4-F)][Trp(βS-Me,4-F)][Aib]EW[Aib]RQSG[dPro(4R-Bzl(4-F))])), the IC50 was determined as 0.049 nM. For `C[C@@H](c1c[nH]c2cccc(F)c12)[C@@H]1NC(=O)[C@@H]2C[C@H](F)CN2C(=O)CNC(=O)[C@H](Cc2ccc(C(=O)O)cc2)NC(=O)[C@H](Cc2ccncc2)NC(=O)[C@H](Cc2ccc(-c3ccc(C(=O)O)cc3)cc2)NC(=O)[C@H]2C[C@@H](Cc3ccc(F)cc3)CN2C(=O)CNC(=O)[C@H](CCN)NC(=O)[C@H](CCC(N)=O)NC(=O)[C@H](CCCNC(=N)N)NC(=O)C(C)(C)NC(=O)[C@H](Cc2c[nH]c3ccccc23)NC(=O)[C@H](CCC(=O)O)NC(=O)C(C)(C)NC1=O` [Example 33] (cyclo([Bip(4'-COOH)][4Pal][Phe(4-COOH)]G[Pro(cis-4-F)][Trp(βS-Me,4-F)][Aib]EW[Aib]RQ[Dab]G[dPro(4R-Bzl(4-F))])), the IC50 is 0.033 nM. On to `C[C@@H](c1c[nH]c2cccc(F)c12)[C@@H]1NC(=O)[C@@H]2C[C@H](F)CN2C(=O)CNC(=O)[C@H](Cc2ccc(C(=O)O)cc2)NC(=O)[C@H](Cc2ccncc2)NC(=O)[C@H](Cc2ccc(-c3ccc(C(=O)O)cc3)cc2)NC(=O)[C@H]2C[C@@H](Cc3ccc(F)cc3)CN2C(=O)CNC(=O)[C@H](CO)NC(=O)[C@H](CCC(N)=O)NC(=O)[C@H](Cc2cccnc2)NC(=O)C(C)(C)NC(=O)[C@H](Cc2c[nH]c3ccccc23)NC(=O)[C@H](CCC(=O)O)NC(=O)C(C)(C)NC1=O` [Example 34] (cyclo([Bip(4'-COOH)][4Pal][Phe(4-COOH)]G[Pro(cis-4-F)][Trp(βS-Me,4-F)][Aib]EW[Aib][3Pal]QSG[dPro(4R-Bzl(4-F))])), for which the IC50 turned out to be 0.032 nM. Next, `C[C@@H](c1c[nH]c2cccc(F)c12)[C@@H]1NC(=O)[C@@H]2C[C@H](F)CN2C(=O)CNC(=O)[C@H](Cc2ccc(C(=O)O)cc2)NC(=O)[C@H](Cc2ccncc2)NC(=O)[C@H](Cc2ccc(-c3ccc(C(=O)O)cc3)cc2)NC(=O)[C@H]2C[C@@H](Cc3ccc(F)cc3)CN2C(=O)CNC(=O)[C@H](CCCNC(=N)N)NC(=O)[C@H](CCC(N)=O)NC(=O)[C@H](Cc2ccccc2)NC(=O)C(C)(C)NC(=O)[C@H](Cc2c[nH]c3ccccc23)NC(=O)[C@H](CCC(=O)O)NC(=O)C(C)(C)NC1=O` [Example 35] (cyclo([Bip(4'-COOH)][4Pal][Phe(4-COOH)]G[Pro(cis-4-F)][Trp(βS-Me,4-F)][Aib]EW[Aib]FQRG[dPro(4R-Bzl(4-F))])): 0.049 nM; `C[C@@H](c1c[nH]c2cccc(F)c12)[C@@H]1NC(=O)[C@@H]2C[C@H](F)CN2C(=O)CNC(=O)[C@H](Cc2ccc(C(=O)O)cc2)NC(=O)[C@H](Cc2ccncc2)NC(=O)[C@H](Cc2ccc(-c3ccc(C(=O)O)cc3)cc2)NC(=O)[C@H]2C[C@@H](Cc3ccc(F)cc3)CN2C(=O)CNC(=O)[C@H](CO)NC(=O)[C@H](CCC(N)=O)NC(=O)[C@H](Cc2ccccn2)NC(=O)C(C)(C)NC(=O)[C@H](Cc2c[nH]c3ccccc23)NC(=O)[C@H](CCC(=O)O)NC(=O)C(C)(C)NC1=O` [Example 36] (cyclo([Bip(4'-COOH)][4Pal][Phe(4-COOH)]G[Pro(cis-4-F)][Trp(βS-Me,4-F)][Aib]EW[Aib][2Pal]QSG[dPro(4R-Bzl(4-F))])): 0.054 nM; `CC(=O)N1CCN(c2ccc(C[C@@H]3NC(=O)[C@H]4C[C@@H](Cc5ccc(F)cc5)CN4C(=O)CNC(=O)[C@H](CCN)NC(=O)[C@H](CCC(N)=O)NC(=O)[C@H](Cc4cncnc4)NC(=O)C(C)(C)NC(=O)[C@H](Cc4c[nH]c5ccccc45)NC(=O)[C@H](CCC(=O)O)NC(=O)C(C)(C)NC(=O)[C@H]([C@@H](C)c4c[nH]c5cccc(F)c45)NC(=O)[C@@H]4C[C@H](F)CN4C(=O)CNC(=O)[C@H](Cc4ccc(C(=O)O)cc4)NC(=O)[C@H](Cc4ccncc4)NC3=O)cc2)CC1` [Example 37] (cyclo([Phe(4-(4-Ac-piperazinyl))][4Pal][Phe(4-COOH)]G[Pro(cis-4-F)][Trp(βS-Me,4-F)][Aib]EW[Aib][Ala(pyrimidin-5-yl)]Q[Dab]G[dPro(4R-Bzl(4-F))])): 0.033 nM.

The values are drawn from patent publication US20260242419A1, “A CYCLIC PEPTIDE FOR TRAPPING INTERLEUKIN-1 BETA” (Merck Sharp & Dohme LLC, priority 2023, published 2026).
